Numbers after ± are expanded uncertainties.
Experiment: xn = mol fraction of the nth substance listed
Conditions: 101 kPa, Liquid; for viscosity: Capillary tube (Ostwald / Ubbelohde) method

CCC(=O)[O-].CC[NH+]1CCNCC1 [N-ethylpiperazinium propionate] + CCCCO
Conditions | mass density, 298.15 K [kg/m3] | mass density, 303.15 K [kg/m3] | mass density, 308.15 K [kg/m3] | mass density, 313.15 K [kg/m3] | viscosity, 298.15 K [mPa·s] | viscosity, 303.15 K [mPa·s] | viscosity, 308.15 K [mPa·s] | viscosity, 313.15 K [mPa·s]
x2 = 0 | 1008.36 ± 1.2 | 1004.38 ± 1.2 | 1000.33 ± 1.2 | 996.237 ± 1.2 | 243.49 ± 7.6 | 164.81 ± 4.6 | 113.44 ± 2.7 | 80.93 ± 1.8
x2 = 0.1025 | 998.465 ± 1.1 | 994.495 ± 1.1 | 990.478 ± 1.1 | 986.427 ± 1.1 | 177.49 ± 4.9 | 122.06 ± 3 | 84.94 ± 1.8 | 61.07 ± 1.2
x2 = 0.2018 | 987.497 ± 0.99 | 983.536 ± 1 | 979.527 ± 1 | 975.484 ± 1 | 133.79 ± 3.3 | 91.02 ± 2 | 63.82 ± 1.2 | 46.53 ± 0.91
x2 = 0.2999 | 975.365 ± 0.94 | 971.427 ± 0.96 | 967.437 ± 0.97 | 963.409 ± 0.99 | 98.72 ± 2.1 | 67.32 ± 1.4 | 47.84 ± 0.9 | 35.22 ± 0.66
x2 = 0.3989 | 961.397 ± 0.92 | 957.475 ± 0.93 | 953.503 ± 0.95 | 949.491 ± 0.96 | 73.16 ± 1.4 | 50.02 ± 0.97 | 35.72 ± 0.66 | 26.48 ± 0.48
x2 = 0.5016 | 944.783 ± 0.91 | 940.876 ± 0.92 | 936.907 ± 0.94 | 932.906 ± 0.96 | 53.48 ± 0.97 | 36.42 ± 0.71 | 26.02 ± 0.47 | 19.37 ± 0.34
x2 = 0.6004 | 926.29 ± 0.92 | 922.385 ± 0.94 | 918.422 ± 0.96 | 914.42 ± 0.98 | 38.82 ± 0.72 | 26.35 ± 0.51 | 18.8 ± 0.34 | 14.05 ± 0.24
x2 = 0.7012 | 903.96 ± 0.97 | 900.045 ± 0.99 | 896.078 ± 1 | 892.071 ± 1 | 27.07 ± 0.5 | 18.12 ± 0.35 | 12.92 ± 0.23 | 9.675 ± 0.16
x2 = 0.8008 | 877.764 ± 1 | 873.84 ± 1.1 | 869.866 ± 1.1 | 865.851 ± 1.1 | 17.51 ± 0.32 | 11.84 ± 0.23 | 8.502 ± 0.15 | 6.434 ± 0.11
x2 = 0.8995 | 845.961 ± 1.2 | 842.05 ± 1.2 | 838.083 ± 1.2 | 834.079 ± 1.2 | 9.611 ± 0.17 | 6.701 ± 0.12 | 4.966 ± 0.081 | 3.87 ± 0.058

CCC(=O)[O-].CC[NH+]1CCNCC1 [N-ethylpiperazinium propionate] + CCCO
Conditions | mass density, 298.15 K [kg/m3] | mass density, 303.15 K [kg/m3] | mass density, 308.15 K [kg/m3] | mass density, 313.15 K [kg/m3] | viscosity, 298.15 K [mPa·s] | viscosity, 303.15 K [mPa·s] | viscosity, 308.15 K [mPa·s] | viscosity, 313.15 K [mPa·s]
x2 = 0 | 1008.36 ± 1.2 | 1004.38 ± 1.2 | 1000.33 ± 1.2 | 996.237 ± 1.2 | 243.49 ± 7.6 | 164.81 ± 4.6 | 113.44 ± 2.7 | 80.93 ± 1.8
x2 = 0.1036 | 1000.19 ± 1 | 996.232 ± 1.1 | 992.229 ± 1.1 | 988.196 ± 1.1 | 160.34 ± 4.3 | 113.63 ± 2.6 | 81.46 ± 1.7 | 59.74 ± 1.2
x2 = 0.2026 | 991.259 ± 0.95 | 987.3 ± 0.97 | 983.298 ± 0.98 | 979.269 ± 1 | 107.67 ± 2.4 | 76.59 ± 1.5 | 56.22 ± 1 | 42.19 ± 0.74
x2 = 0.3041 | 980.78 ± 0.89 | 976.824 ± 0.9 | 972.831 ± 0.92 | 968.803 ± 0.93 | 70.22 ± 1.3 | 52.12 ± 0.9 | 39.45 ± 0.67 | 30.42 ± 0.51
x2 = 0.4017 | 968.85 ± 0.84 | 964.943 ± 0.86 | 960.993 ± 0.88 | 956.993 ± 0.89 | 47.45 ± 0.8 | 36.21 ± 0.6 | 28.19 ± 0.45 | 22.22 ± 0.35
x2 = 0.4993 | 955.014 ± 0.82 | 951.074 ± 0.84 | 947.084 ± 0.86 | 943.06 ± 0.88 | 30.81 ± 0.5 | 24.26 ± 0.37 | 19.38 ± 0.29 | 15.67 ± 0.23
x2 = 0.5997 | 937.035 ± 0.83 | 933.087 ± 0.85 | 929.086 ± 0.87 | 925.047 ± 0.89 | 18.93 ± 0.3 | 15.39 ± 0.22 | 12.6 ± 0.18 | 10.42 ± 0.14
x2 = 0.6994 | 915.033 ± 0.88 | 911.053 ± 0.9 | 907.028 ± 0.92 | 902.965 ± 0.94 | 11.31 ± 0.17 | 9.444 ± 0.13 | 7.899 ± 0.11 | 6.684 ± 0.085
x2 = 0.8009 | 886.568 ± 0.97 | 882.553 ± 0.99 | 878.491 ± 1 | 874.385 ± 1 | 6.389 ± 0.098 | 5.454 ± 0.072 | 4.689 ± 0.061 | 4.059 ± 0.049
x2 = 0.8997 | 850.105 ± 1.1 | 846.036 ± 1.1 | 841.932 ± 1.1 | 837.782 ± 1.2 | 3.609 ± 0.053 | 3.15 ± 0.04 | 2.762 ± 0.035 | 2.435 ± 0.029

CCC(=O)[O-].CC[NH+]1CCNCC1 [N-ethylpiperazinium propionate] + CCO
Conditions | mass density, 298.15 K [kg/m3] | mass density, 303.15 K [kg/m3] | mass density, 308.15 K [kg/m3] | mass density, 313.15 K [kg/m3] | viscosity, 298.15 K [mPa·s] | viscosity, 303.15 K [mPa·s] | viscosity, 308.15 K [mPa·s] | viscosity, 313.15 K [mPa·s]
x2 = 0 | 1008.36 ± 1.2 | 1004.38 ± 1.2 | 1000.33 ± 1.2 | 996.237 ± 1.2 | 243.49 ± 7.6 | 164.81 ± 4.6 | 113.44 ± 2.7 | 80.93 ± 1.8
x2 = 0.0971 | 1002.79 ± 1.1 | 998.809 ± 1.1 | 994.769 ± 1.1 | 990.695 ± 1.1 | 170.13 ± 4.6 | 119.44 ± 2.9 | 85.41 ± 1.8 | 61.23 ± 1.2
x2 = 0.2017 | 995.311 ± 0.94 | 991.322 ± 0.95 | 987.293 ± 0.97 | 983.232 ± 0.98 | 109.9 ± 2.4 | 82.6 ± 1.6 | 60.3 ± 1.1 | 44.79 ± 0.84
x2 = 0.3033 | 986.576 ± 0.86 | 982.598 ± 0.88 | 978.579 ± 0.89 | 974.526 ± 0.91 | 75.85 ± 1.4 | 55.8 ± 0.98 | 42.03 ± 0.72 | 32.1 ± 0.55
x2 = 0.3983 | 976.628 ± 0.81 | 972.658 ± 0.83 | 968.645 ± 0.85 | 964.592 ± 0.86 | 48.89 ± 0.86 | 37.01 ± 0.62 | 28.65 ± 0.46 | 22.63 ± 0.35
x2 = 0.5001 | 963.41 ± 0.79 | 959.429 ± 0.81 | 955.408 ± 0.82 | 951.35 ± 0.84 | 29.59 ± 0.49 | 23.34 ± 0.36 | 18.57 ± 0.28 | 15.06 ± 0.22
x2 = 0.6006 | 946.741 ± 0.79 | 942.745 ± 0.81 | 938.702 ± 0.83 | 934.623 ± 0.85 | 17.18 ± 0.28 | 14 ± 0.2 | 11.54 ± 0.16 | 9.602 ± 0.13
x2 = 0.6994 | 925.277 ± 0.83 | 921.231 ± 0.85 | 917.149 ± 0.87 | 913.029 ± 0.89 | 9.403 ± 0.15 | 7.923 ± 0.11 | 6.734 ± 0.09 | 5.766 ± 0.071
x2 = 0.8001 | 895.282 ± 0.93 | 891.163 ± 0.95 | 887.012 ± 0.97 | 882.818 ± 0.99 | 4.925 ± 0.077 | 4.279 ± 0.055 | 3.74 ± 0.048 | 3.286 ± 0.039
x2 = 0.8998 | 852.465 ± 1.1 | 848.243 ± 1.1 | 843.982 ± 1.1 | 839.679 ± 1.2 | 2.437 ± 0.038 | 2.175 ± 0.027 | 1.947 ± 0.024 | 1.749 ± 0.02

CCC(=O)[O-].CC[NH+]1CCNCC1 [N-ethylpiperazinium propionate] + CO
Conditions | mass density, 298.15 K [kg/m3] | mass density, 303.15 K [kg/m3] | mass density, 308.15 K [kg/m3] | mass density, 313.15 K [kg/m3] | viscosity, 298.15 K [mPa·s] | viscosity, 303.15 K [mPa·s] | viscosity, 308.15 K [mPa·s] | viscosity, 313.15 K [mPa·s]
x2 = 0 | 1008.36 ± 1.2 | 1004.38 ± 1.2 | 1000.33 ± 1.2 | 996.237 ± 1.2 | 243.49 ± 7.6 | 164.81 ± 4.6 | 113.44 ± 2.7 | 80.93 ± 1.8
x2 = 0.107 | 1004.94 ± 1.1 | 1000.96 ± 1.1 | 996.919 ± 1.1 | 992.856 ± 1.1 | 172.19 ± 4.7 | 121.04 ± 2.9 | 86.27 ± 1.8 | 62.74 ± 1.3
x2 = 0.21 | 1000.73 ± 0.94 | 996.739 ± 0.95 | 992.724 ± 0.97 | 988.682 ± 0.98 | 123.07 ± 2.7 | 89.92 ± 1.8 | 65.93 ± 1.2 | 49.08 ± 0.96
x2 = 0.297 | 996.263 ± 0.87 | 992.299 ± 0.88 | 988.292 ± 0.9 | 984.255 ± 0.92 | 84.02 ± 1.6 | 63.49 ± 1.1 | 47.38 ± 0.83 | 36.14 ± 0.62
x2 = 0.402 | 989.36 ± 0.8 | 985.408 ± 0.82 | 981.411 ± 0.83 | 977.382 ± 0.85 | 52.96 ± 0.89 | 40.86 ± 0.67 | 31.63 ± 0.52 | 24.89 ± 0.4
x2 = 0.5021 | 980.548 ± 0.76 | 976.585 ± 0.78 | 972.582 ± 0.79 | 968.548 ± 0.81 | 32.54 ± 0.54 | 25.5 ± 0.4 | 20.36 ± 0.31 | 16.5 ± 0.24
x2 = 0.5994 | 968.97 ± 0.74 | 964.991 ± 0.76 | 960.968 ± 0.78 | 956.912 ± 0.8 | 18.41 ± 0.31 | 15.03 ± 0.22 | 12.4 ± 0.18 | 10.4 ± 0.14
x2 = 0.7015 | 951.447 ± 0.76 | 947.38 ± 0.78 | 943.3 ± 0.8 | 939.188 ± 0.82 | 9.416 ± 0.16 | 7.866 ± 0.11 | 6.73 ± 0.091 | 5.804 ± 0.072
x2 = 0.7998 | 925.328 ± 0.83 | 921.15 ± 0.85 | 916.957 ± 0.87 | 912.733 ± 0.9 | 4.331 ± 0.076 | 3.807 ± 0.05 | 3.366 ± 0.044 | 2.989 ± 0.036
x2 = 0.8999 | 879.78 ± 1 | 875.414 ± 1 | 871.008 ± 1.1 | 866.573 ± 1.1 | 1.754 ± 0.033 | 1.592 ± 0.02 | 1.451 ± 0.018 | 1.327 ± 0.017

From the NIST ThermoML archive (doi:10.1021/je201116t)
